According to patent US11833229B2, “Labeling precursors with squaric acid coupling” (SCV—SpezialChemikalienVertrieb GmbH, priority 2019, dated 2023):

Key:
[1] = Stability of [44Sc]Sc-AAZTA.QS.PSMA; format: in vitro ADME; conditions: over a period of 24 hours
Protocol: Similar to DATA, the AAZTA chelator can also be labeled with radio nuclides such as ^44Sc and ^68Ga under mild conditions. In the instant example, the radioisotope ^44Sc is used and the properties of the radiotracer [^44Sc]Sc-AAZTA.QS.PSMA are investigated. The synthesis shown in FIG. 44 was readily carried out with high yield. […] The stability of [^44Sc]Sc-AAZTA.QS.PSMA exceeds 95% over a period of 24 hours (FIG. 46).

[2] = tested on: LNCap tumor; assay: Ex vivo activities of [44Sc]Sc-AAZTA.QS.PSMA with and without 2-PMPA blocking; format: in vivo, mice; conditions: for Ex vivo activity kindneys: kidneys
Protocol: The radiotracer [^44Sc]Sc-AAZTA.QS.PSMA was further examined in vivo in three mice, each carrying an LNCap tumor. In addition blocking tests were carried out on one of the mice. […] The same applies to the kidneys.

[3] = tested on: tumor; assay: In vivo PET comparison of DATA.QS.PSMA with PSMA-11 (MIP, time/activity curves)
Source text: Furthermore, compounds of the type DATA.QS.PSMA were compared in vivo with PSMA-11 in the same animal model.

[4] = tested on: tumor; assay: Ex vivo activities of 68Ga-DATA.QS.PSMA and 68Ga-PSMA-11; format: in vivo; conditions: ± SD
Source text: The results of ex vivo investigations (FIGS. 41-43) are in agreement with the in vivo observations.

O=C(O)CCC(NC(=O)NC(CCCCNc1c(NCCNC(=O)CCCCC2(N(CC(=O)O)CC(=O)O)CN(CC(=O)O)CCN(CC(=O)O)C2)c(=O)c1=O)C(=O)O)C(=O)O.[44Sc+3] (stereo not shown) [^44Sc.AAZTA.QS.KuE]
stability [1]: exceeds 95% | Ex vivo activity LN ([2]; Block (+PMPA)): 0.39 % ID/g | Ex vivo activity LN ([2]; mouse (1), no blocking): 1.33 % ID/g | Ex vivo activity LN ([2]; mouse (2), no blocking): 0.38 % ID/g | Ex vivo activity blood ([2]; Block (+PMPA)): 0.34 % ID/g | Ex vivo activity blood ([2]; mouse (1), no blocking): 0.96 % ID/g | Ex vivo activity blood ([2]; mouse (2), no blocking): 0.41 % ID/g | Ex vivo activity bone ([2]; Block (+PMPA)): 0.10 % ID/g | Ex vivo activity bone ([2]; mouse (1), no blocking): 0.46 % ID/g | Ex vivo activity bone ([2]; mouse (2), no blocking): 0.29 % ID/g | Ex vivo activity heart ([2]; Block (+PMPA)): 0.11 % ID/g | Ex vivo activity heart ([2]; mouse (1), no blocking): 0.41 % ID/g | Ex vivo activity heart ([2]; mouse (2), no blocking): 0.14 % ID/g | Ex vivo activity kindneys ([2]; Block (+PMPA)): 7.97 % ID/g | Ex vivo activity kindneys ([2]; mouse (1), no blocking): 119.86 % ID/g | Ex vivo activity kindneys ([2]; mouse (2), no blocking): 42.76 % ID/g | Ex vivo activity liver ([2]; Block (+PMPA)): 0.16 % ID/g | Ex vivo activity liver ([2]; mouse (1), no blocking): 0.42 % ID/g | Ex vivo activity liver ([2]; mouse (2), no blocking): 0.16 % ID/g | Ex vivo activity lung ([2]; Block (+PMPA)): 0.06 % ID/g | Ex vivo activity lung ([2]; mouse (1), no blocking): 1.31 % ID/g | Ex vivo activity lung ([2]; mouse (2), no blocking): 0.59 % ID/g | Ex vivo activity muscle ([2]; Block (+PMPA)): 0.05 % ID/g | Ex vivo activity muscle ([2]; mouse (1), no blocking): 0.38 % ID/g | Ex vivo activity muscle ([2]; mouse (2), no blocking): 0.13 % ID/g | Ex vivo activity salivary glands ([2]; Block (+PMPA)): 0.11 % ID/g | Ex vivo activity salivary glands ([2]; mouse (1), no blocking): 0.51 % ID/g | Ex vivo activity salivary glands ([2]; mouse (2), no blocking): 0.18 % ID/g | Ex vivo activity small intestine ([2]; Block (+PMPA)): 0.35 % ID/g | Ex vivo activity small intestine ([2]; mouse (1), no blocking): 0.62 % ID/g | Ex vivo activity small intestine ([2]; mouse (2), no blocking): 0.22 % ID/g | Ex vivo activity spleen ([2]; Block (+PMPA)): 0.15 % ID/g | Ex vivo activity spleen ([2]; mouse (1), no blocking): 6.19 % ID/g | Ex vivo activity spleen ([2]; mouse (2), no blocking): 1.15 % ID/g | Ex vivo activity tumor ([2]; Block (+PMPA)): 0.53 % ID/g | Ex vivo activity tumor ([2]; mouse (1), no blocking): 14.73 % ID/g | Ex vivo activity tumor ([2]; mouse (2), no blocking): 14.14 % ID/g

CN(CC(=O)O)C1(CCCCC(=O)NCCNc2c(NCCCCC(NC(=O)NC(CCC(=O)O)C(=O)O)C(=O)O)c(=O)c2=O)CN(CC(=O)O)CCN(CC(=O)O)C1.[68Ga+3] (stereo not shown) [^68Ga.DATA.QS.PSMA]
accumulation in the tumor ([3]; MIP images): high accumulation | excretion via the kidneys ([3]; first hour, compared with [68Ga]-PSMA-11, time/activity curves): significantly faster | Ex vivo activity LN ([4]; LN): 0.35 ± 0.20 % ID/g | Ex vivo activity blood ([4]; blood): 0.50 ± 0.19 % ID/g | Ex vivo activity bone ([4]; bone): 0.15 ± 0.03 % ID/g | Ex vivo activity heart ([4]; heart): 0.17 ± 0.06 % ID/g | Ex vivo activity kidney left ([4]; kidney left): 6.59 ± 2.45 % ID/g | Ex vivo activity kidney right ([4]; kidney right): 6.23 ± 2.39 % ID/g | Ex vivo activity liver ([4]; liver): 0.21 ± 0.04 % ID/g | Ex vivo activity lung ([4]; lung): 0.59 ± 0.27 % ID/g | Ex vivo activity muscle ([4]; muscle): 0.09 ± 0.05 % ID/g | Ex vivo activity salivary glands ([4]; salivary glands): 0.19 ± 0.07 % ID/g | Ex vivo activity small intestine ([4]; small intestine): 0.31 ± 0.12 % ID/g | Ex vivo activity spleen ([4]; spleen): 0.54 ± 0.22 % ID/g | Ex vivo activity tumor ([4]; tumor): 4.65 ± 0.58 % ID/g
